Reference: patent publication US6638961B2 (priority 1994, dated 2003)
Several values for one entry are separate records, joined by “and”; a condition that tells them apart may be missing. Equal values may be shown once.

How the values were obtained:
[1] = system: Phytophthora infestans (tomato blight); format: in vivo; settings: for dose of the active substance alone which it is necessary to apply to obtain the destruction of 90% of the pest: applied alone, tomato plants sprayed 48 hours before contamination, reading 7 days after contamination
[2] = system: Plasmopara viticola (vine downy mildew); assay: In vivo trial on Plasmopara viticola (vine downy mildew) by preventive treatment at 72 hours, vine cuttings Chardonnay variety
Method: (§1) A 60 mg suspension is prepared comprising compounds A and B in a liquid mixture consisting of 0.3 ml of a surface-active agent (oleate of a polyoxyethylenated derivative of sorbitan) diluted 10% in water and of 60 ml of water.
(§2) Vine cuttings (Vitis vinifera) Chardonnay variety, are cultivated in pots. When these plants are 2 months old (8 to 10-leaf stage, height 10 to 15 cm), they are treated by spraying using the above suspension.
(§3) Plants used as controls are treated with a similar suspension but not containing any active substance (formulation blank).
(§4) After drying for 72 hours, each plant is contaminated by spraying an aqueous Plasmopara viticola spore suspension obtained from sporulated leaves contaminated 7 days earlier. These spores are suspended in an amount of 100,000 units per cm^3.
(§5) The contaminated plants are then incubated for two days at about 18° C., in an atmosphere saturated with moisture, and then for 5 days at 20-22° C. under a relative humidity of 90-100%.

[3] = system: Plasmopara viticola (vine downy mildew); assay: In vivo trial on Plasmopara viticola (vine downy mildew) by preventive treatment at 24 hours, vine cuttings Chardonnay variety; settings: dose 3.2 mg/l compound A and/or 12.5 mg/l mancozeb; contamination 24 hours after treatment
Method: as §1, §2, §3, §4, §5
Example 2 is repeated using as component B mancozeb, using A and B concentrations in the suspension for treating the plants equal to 3.2 and 12.5 mg/l respectively, and finally carrying out the contamination 24 hours after the treatment.
The efficacy measured, as well as the efficacy of products A and B alone measured under the same conditions, is indicated in the table below. […]

| Compound | efficacy when applied alone ([1]; applied alone under the trial conditions, preventive 48 hours, 90% destruction level (FIG. 1)) | efficacy when applied alone ([2]; applied alone under the trial conditions, preventive 72 hours, 90% destruction level (FIG. 2)) | dose of the active substance alone which it is necessary to apply to obtain the destruction of 90% of the pest [1] | Efficacy (in %) [3] [%] | dose of the active substance alone which it is necessary to apply to obtain the destruction of 90% of the pest ([2]; applied alone, vine plants sprayed 72 hours before contamination, reading 7 days after contamination) [mg/L] |
| --- | --- | --- | --- | --- | --- |
| CCO[PH](=O)O [fosetyl-Al] | not effective | not effective | – | – | – |
| CCN(C)C(=O)c1ccc(C(F)(F)F)cc1-c1ccc(OC)c(OC)c1 [N-methyl-N-ethyl-2-(3,4-dimethoxyphenyl)-4-trifluoromethylbenzamide] | – | – | 166 mg/L | – | – |
| mancozeb | – | – | – | 0 | – |
| CSC1=N[C@@](C)(c2ccccc2)C(=O)N1Nc1ccccc1 [Compound A, (4S)-4-methyl-2-methylthio-4-phenyl-1-phenylamino-2-imidazolin-5-one] | – | – | 309 mg/L and 163 mg/L | 80.8 | 20 |
